This is an account of results in patent US20030125269A1, “T-TYPE CALCIUM CHANNEL” (priority 1998, published 2003).

Data set [1] in a line: Mass spectrometric analysis of mibefradil and dm-mibefradil in INS-1 cells.
Protocol: Mass Spectrometric Analysis—A VG 70-250 SEQ instrument (VG Analytical, Manchaster, UK) was used with fast atom bombardment (FAB) ionization mode to obtain mass spectra of the mibefradil and dm-mibefradil. Cultured INS-1 cells were treated with 20 μM mibefradil for various lengths of time under each experimental condition. The cell pellets were collected after washing three times with PBS and resuspended in 0.5 ml media for mass spectrometric analysis. For a 50 μl cell sample, 20 μl internal standard solution (40 μM verapamil, MW: 454) and 5 μl glycerol was added, and 4 μl of this mixture was used for FAB-MS. Several positive ion spectra were recorded in the mass range m/z 750-100 at a mass resolution of 1000, and a scan speed of 2 second/decade. For mibefradil, m/z 496 was the dominant ion (M+H)^+ accompanied with a less intense sodiated molecular ion m/z 518. The concentrations of the mibefradil and hydrolyzed mibefradil were obtained by comparing the intensities of m/z 496 and 424 were to the intensity of m/z 455. For calibration, a standard solution of 50 μM drug was subjected to mass spectrometric analysis.
To test the hypothesis that mibefradil may permeate through the cell membrane to the cytoplasm and be trapped inside cells, the presence of mibefradil was examined in cells pre-incubated with 20 μM of mibefradil using mass spectrometry. […] The localization of mibefradil in cells was examined by measuring the concentration of mibefradil in the pellets and supernatants after lysis of the cells.
The next data set has as its system INS-1 cells. The experiment in a line: Basal [Ca^2+]i in INS-1 cells by fura-2 fluorescence. The data set is classed as cell-based, rat. Conditions: 1 μM, single INS-1 cell with basal [Ca^2+]i near 150 nM, no glucose; dihydrochloride. As for the experimental part:
[Ca^2+]i was directly measured by the ratio of fluorescence excitations at Ca^2+-bound […], and then the ratio was converted to the calcium concentration. The bath solution contained […], 4 mM KCl, 2 mM CaCl2, and 2 mM MgCl2.
The effect of basal [Ca^2+]i on Ca^2+ influx was examined using the Ca^2+ dye indicator fura-2 and fluorescence measurements. Voltage-dependent Ca^2+ influx in a single cell was obtained by perfusion of an osmotically balanced solution containing 50 mM KCl into the recording chamber. […] The resting basal [Ca^2+]i in INS-1 cells was approximately 60-80 nM under the experimental conditions. [Ca^2+]i was determined by a standard curve obtained from a fura-2 calcium imaging kit (Molecule Probes). The empirical Kd obtained for calcium binding to fura-2 in the system was 296±20 nM. When basal [Ca^2+]i remains low, subsequent voltage stimulation with 50 KCl induces rapid and large calcium influx into the cell and these calcium changes are stereotyped upon repetitive stimulation when basal calcium is restored (FIG. 10). In this experiment, following the 50 KCl depolarization, the cell was repolarized by perfusion of the original 5 mM KCl solution. After repolarization, basal [Ca^2+]i slowly reset and then a second 50 KCl depolarization induced a similar [Ca^2+]i transient. When the basal calcium is not allowed to reset, a defect in the second voltage induced calcium transient occurs (FIG. 11). […] Therefore effectors of basal [Ca^2+]i will have important impact on the amount of calcium that can enter the cell.

Data set [2] concerns T-type Ca^2+ current. Conditions: vascular smooth muscle cells; cited from earlier work.
Data set [3] concerns NIT-1 cells. The data set can be described thus: Cytokine-induced cell death in NIT-1 cells. The class given is cell-based, mouse.
The subject of a further data set is L-type Ca^2+ current. The experiment in a line: Patch clamp recording (whole-cell and perforated patch) of L-type Ca^2+ current in insulin-secreting (INS-1) cells. The data set is classed as cell-based, rat. As for the experimental part:
(§1) Cell Culture—INS-1 cells were cultured in RPMI 1640 medium containing 10% FBS, 25 U/ml penicillin, […] streptomycin and 50 μM mercaptoethanol in an atmosphere of 5% CO2 in air, at 37° C. for 2-5 days before recording.
(§2) β-cells Electrophysiological recording—The whole-cell recordings were carried out by the standard “giga-seal” patch clamp technique (Hamill et al.). The whole-cell recording pipettes were made of hemocapillaries (Warner), pulled by a two-stage puller (PC-10, Narishige International, New York, N.Y.), and heat polished with a microforge (MF200-1, World Precision Instruments, Sarasota, Fla.) before use. Pipette resistance was in the range of 2-5 MΩ in the internal solution. The recordings were performed at room temperature (22-25° C.). Currents were recorded using an EPC-9 patch-clamp amplifier (HEKA) and filtered at 2.9 kHz. Data were acquired with Pulse/PulseFit software (HEKA). Voltage-dependent currents were corrected for linear leak and residual capacitance by using an on-line P/n subtraction paradigm.
(§3) Solutions—The extracellular solution used in whole-cell Ca^2+ current recording contained (in mM): 10 CaCl21 110 tetraethylammonium-Cl (TEA-Cl), 10 CsCl, 10 N-2-hydroxyethylpiperazine-N′-2-ethanesulfonic acid (HEPES), 40 sucrose, 0.5 3,4-diaminopyridine, pH 7.3. The intracellular solution contained (in mM): 130 N-methyl-D-glucamine, 20 EGTA (free acid), 5 bis (2-aminophenoxy) ethane-N,N,N′,N′-tetraacetate (BAPTA), 10 HEPES, 6 MgCl2, 4 Ca(OH)2/pH was adjusted to 7.4 with methanesulfonate. 2 mM Mg-ATP was included in the pipette solution to minimize rundown of L-type Ca^2+ currents. For Perforated-patch recording, the extracellular solution contained (in mM): 26 Sucrose, 30 TEA-Cl, 10 HEPES, 5 KCl, 2 CaCl2, MgCl2, pH 7.3. The pipette solution contained (in mM): 65 CsOH, 65 CsMS, 20 sucrose, 10 HEPES, 10 MgCl2, 1 Ca(OH)2, pH 7.4.
(§4) The T-type Ca^2+ current was measured at −30 mV when the membrane was held at −90 mV and the L-type current was measured at +20 mV when the membrane was held at −40 mV. The currents were measured twice at each concentration of mibefradil with 2 min in between measurements.
(§5) A drug diffusing system was then used to test the reversibility of the antagonism of T- and L-type Ca^2+ currents by mibefradil. Small volumes (approximately 2 μl) of drugs were delivered in close proximity to the recording cell with a quartz capillary positioned by a micromanipulator. After administration, drugs diffused throughout the entire recording chamber containing 2 ml of bath solution. This drug diffusing system was used to test the reversibility of 30 μM of NiCl2 on the T-type Ca^2+ currents (FIG. 4).
This hypothesis was tested by applying a very low dose of mibefradil on cells and recording the L-type Ca^2+ currents for a long time in the perforated patch-clamp configuration.
A general note: Patch clamp records ionic current or voltage across a cell membrane.

The target in data set [4] is T-type Ca^2+ current (Rattus norvegicus, UniProt O54898). The experiment in a line: Patch clamp recording of T-type Ca^2+ current in insulin-secreting (INS-1) cells. The class given is cell-based. As for the experimental part:
as §1, §2, §3, §4, §5

Data set [5] deals with NIT-1 cells. The data set can be described thus: Basal insulin secretion in NIT-1 cells. The data set is classed as cell-based, mouse. Particulars: 5 μM mibefradil, 3 mM glucose. From the text: NIT-1 is a cell line derived from the β-cells of non-obese-diabetic mouse. This cell line expressed high levels of T-type Ca^2+ current.
The conditions of data set [6]: rat; cited from earlier work.
A further data set relates to β-TC3 cells. The experiment in a line: Cytokine-induced DNA fragmentation in β-TC3 cells. The class given is cell-based, mouse. Particulars: β-TC3 cells (n=2); same results in NIT-1 cells (n=3).
Setting [7] is: cells pre-incubated with 20 μM mibefradil.
Setting [8] is: 1 μM in the pipette solution, whole-cell, 5 min after patch formation.

Each structure is given as a SMILES string. Entries after “also recorded” stand apart in the source; their conditions may differ. Counter-ions that a name gives are not always drawn.

Chain of T-type Ca^2+ current (Rattus norvegicus, UniProt O54898) (O54898 whole entry): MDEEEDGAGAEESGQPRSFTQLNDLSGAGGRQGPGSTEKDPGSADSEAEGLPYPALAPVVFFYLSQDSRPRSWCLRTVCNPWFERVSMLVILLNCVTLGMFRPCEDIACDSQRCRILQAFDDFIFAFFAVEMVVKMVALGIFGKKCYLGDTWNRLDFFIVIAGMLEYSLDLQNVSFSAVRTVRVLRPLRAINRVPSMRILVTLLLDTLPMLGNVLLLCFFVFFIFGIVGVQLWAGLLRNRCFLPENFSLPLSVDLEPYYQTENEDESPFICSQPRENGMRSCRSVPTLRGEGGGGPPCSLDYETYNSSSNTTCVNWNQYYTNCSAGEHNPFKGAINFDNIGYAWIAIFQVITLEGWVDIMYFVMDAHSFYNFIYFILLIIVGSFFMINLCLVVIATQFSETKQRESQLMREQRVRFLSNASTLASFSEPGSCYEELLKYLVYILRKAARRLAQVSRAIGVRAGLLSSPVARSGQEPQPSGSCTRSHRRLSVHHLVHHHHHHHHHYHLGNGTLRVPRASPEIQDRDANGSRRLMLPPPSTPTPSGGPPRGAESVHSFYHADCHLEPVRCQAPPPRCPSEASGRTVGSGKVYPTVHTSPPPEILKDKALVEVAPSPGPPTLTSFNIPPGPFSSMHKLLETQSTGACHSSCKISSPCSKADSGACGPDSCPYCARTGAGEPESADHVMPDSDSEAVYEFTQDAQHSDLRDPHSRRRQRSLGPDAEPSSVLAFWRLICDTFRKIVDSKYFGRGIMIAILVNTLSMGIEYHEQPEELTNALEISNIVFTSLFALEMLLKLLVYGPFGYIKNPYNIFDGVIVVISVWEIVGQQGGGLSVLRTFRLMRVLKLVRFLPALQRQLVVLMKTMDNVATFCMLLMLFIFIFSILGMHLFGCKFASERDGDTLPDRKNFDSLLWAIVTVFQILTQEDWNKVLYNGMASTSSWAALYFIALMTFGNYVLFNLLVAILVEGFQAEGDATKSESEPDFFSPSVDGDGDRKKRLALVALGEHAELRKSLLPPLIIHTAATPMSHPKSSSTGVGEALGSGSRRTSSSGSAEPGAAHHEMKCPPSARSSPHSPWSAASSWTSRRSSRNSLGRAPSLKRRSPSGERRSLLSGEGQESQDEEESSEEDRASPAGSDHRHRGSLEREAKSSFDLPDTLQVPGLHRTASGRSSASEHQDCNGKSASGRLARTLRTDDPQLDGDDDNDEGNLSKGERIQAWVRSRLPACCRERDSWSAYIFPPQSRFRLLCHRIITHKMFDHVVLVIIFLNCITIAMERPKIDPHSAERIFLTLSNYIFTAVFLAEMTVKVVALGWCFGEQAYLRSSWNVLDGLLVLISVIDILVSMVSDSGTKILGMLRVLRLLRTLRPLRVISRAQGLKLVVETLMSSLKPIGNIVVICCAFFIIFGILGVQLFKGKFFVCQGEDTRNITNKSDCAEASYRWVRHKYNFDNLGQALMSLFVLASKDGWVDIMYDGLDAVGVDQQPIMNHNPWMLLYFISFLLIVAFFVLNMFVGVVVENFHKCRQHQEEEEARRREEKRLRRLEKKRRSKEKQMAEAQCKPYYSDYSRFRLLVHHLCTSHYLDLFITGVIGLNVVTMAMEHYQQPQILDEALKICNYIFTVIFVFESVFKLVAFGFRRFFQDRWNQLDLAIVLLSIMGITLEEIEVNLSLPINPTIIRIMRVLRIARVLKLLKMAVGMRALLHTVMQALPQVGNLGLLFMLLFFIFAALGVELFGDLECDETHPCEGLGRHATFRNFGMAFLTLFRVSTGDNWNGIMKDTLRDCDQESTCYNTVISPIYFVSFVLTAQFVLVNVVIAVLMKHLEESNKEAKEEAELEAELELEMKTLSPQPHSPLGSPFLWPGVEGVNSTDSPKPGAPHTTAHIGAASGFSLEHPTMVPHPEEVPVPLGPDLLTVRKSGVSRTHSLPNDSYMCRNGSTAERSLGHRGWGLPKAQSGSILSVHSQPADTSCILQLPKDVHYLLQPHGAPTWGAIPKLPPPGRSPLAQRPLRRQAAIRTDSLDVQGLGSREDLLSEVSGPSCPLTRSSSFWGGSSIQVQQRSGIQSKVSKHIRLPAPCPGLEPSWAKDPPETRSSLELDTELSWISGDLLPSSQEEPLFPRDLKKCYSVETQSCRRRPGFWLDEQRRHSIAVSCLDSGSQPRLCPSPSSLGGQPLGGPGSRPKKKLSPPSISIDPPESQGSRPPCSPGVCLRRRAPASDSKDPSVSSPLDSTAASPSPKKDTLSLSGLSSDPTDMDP

Turning to `COCC(=O)O[C@]1(CCN(C)CCCc2nc3ccccc3[nH]2)CCc2cc(F)ccc2[C@@H]1C(C)C` [mibefradil, (1S,2S)-2-[2-[[3-(2-Benzimidazolyl)propyl]methyl-amino]ethyl]-6-fluoro-1,2,3,4-tetrahydro-1-isopropyl-2-napthyl methoxy-acetate dihydrochloride], in [1] (cells incubated with 20 μM mibefradil for one minute, 3 washes, n=3), the “concentration of intracellular mibefradil” value came to 3.18 ± 0.78 µM. For the same compound, in data set [1] (setting [7]), the “share of mibefradil detected in the supernatants after lysis of the cells” value was 92% and the “share of mibefradil found in the pellets after washing with methanol” value came to 0%. Further, the “effect on basal [Ca^2+]i” value with INS-1 cells was “immediately lowered the basal calcium; also recorded: reduced basal [Ca^2+]i”. Also, the “inhibitory effect on T-type Ca^2+ current” value in the data set on T-type Ca^2+ current [2] was “potent inhibitory effect”. Moreover, the “effect on cytokine-induced cell death” value in the data set on NIT-1 cells [3] is “reduced β-cells death induced by cytokines”. The “relative L-type Ca^2+ currents” value with L-type Ca^2+ current (10 nM mibefradil, after 25 minutes, perforated patch-clamp) was 70%. Further, the “L-type current densities after incubation” value in the data set with L-type Ca^2+ current (10 nM mibefradil, two hours incubation, perforated patches) is on record as “further reduction of current densities”. In addition, the “effect on L-type Ca^2+ current from inside of cells” value in the data set on L-type Ca^2+ current (setting [8]) was “did not have inhibitory effects”. Moreover, the “L-type Ca^2+ current, % of the beginning amplitude” value in the data set with L-type Ca^2+ current (1 μM mibefradil, after 10 minutes, whole-cell, n=4) is “up to 70%”. Further, the “block of L-type Ca^2+ current” value in the data set with L-type Ca^2+ current (1 μM, INS-1 cells) is “blocks T- and L-type Ca^2+ current”. Further, the “reversibility of the inhibition of L-type Ca^2+ current” value with L-type Ca^2+ current (drug diffusing system, perforated patch) is “poorly reversible”. The “long-term effect on the T-type Ca^2+ current” value at T-type Ca^2+ current [4] (10 nM, perforated patch) is “no long-term effect”. Moreover, the “block of T-type Ca^2+ current” value on T-type Ca^2+ current [4] (1 μM in recording chamber, conventional whole cell patch clamp, dihydrochloride) was “blocks T- and L-type Ca^2+ current”. Moreover, the “effect on T-type Ca^2+ current from inside of cells” value at T-type Ca^2+ current [4] (setting [8]) was “did not have inhibitory effects”. Besides, the “sensitivity of T-type versus L-type Ca^2+ current” value at T-type Ca^2+ current [4] (1 μM, pancreatic β-cells) is on record as “more sensitive”. Further, at T-type Ca^2+ current [4] (drug diffusing system, small volume delivered near the cell, dihydrochloride), the “reversibility of the inhibition of T-type Ca^2+ current” value is “clearly reversible; also recorded: reversibly block T type Ca^2+ current”. Further, at T-type Ca^2+ current [4] (whole-cell patch clamp, bath perfusion), the “time dependence of the inhibition of T-type Ca^2+ current” value is “No time-dependent inhibition”. Moreover, the “basal insulin secretion relative to control” value in the data set on NIT-1 cells [5] is “less than 40”. In addition, the “effect on development of hyperinsulinemia” value in data set [6] was “prevented and reversed development of hyperinsulinemia”. For the same compound, the “effect on cytokine-induced DNA fragmentation” value in the data set on β-TC3 cells is “prevented cytokine-induced DNA fragmentation”.
